ChEMBL document CHEMBL5512671, “Structure-Based Optimization of Novel Sterol 24-C-Methyltransferase Inhibitors for the Treatment of Candida albicans Infections” (J Med Chem, 2024)
The source made the active and inactive calls. The rule behind the calls is not given here.

Assays:
Candida albicans [1] = test: Antifungal activity against Candida albicans SC5314 assessed as inhibition of fungal growth incubated for 24 hrs by CLSI protocol based broth microdilution method; type: functional
Candida albicans [2] = test: Antifungal activity against Candida albicans SC5314 assessed as inhibition of hyphae growth incubated for 24 hrs by CLSI protocol based broth microdilution method; type: functional
[3] = Cytotoxicity against human BEAS-2B cells incubated for 48 hrs by CCK-8 method; type: toxicity, cell-based
[4] = Hemolytic activity in mouse RBC assessed as hemolysis at 2 to 32 ug/ml incubated for 60 mins by absorbance based analysis relative to control; type: toxicity, cell-based, Erythrocyte; details: mouse red blood cells, at 2 to 32 µg/mL, dose 2-32 µg/ml, read-out: Activity
[5] = molecular target: T1, Sterol 24-C-methyltransferase (Candida albicans (strain SC5314 / ATCC MYA-2876) (Yeast)) (UniProt O74198); test: Inhibition of Candida albicans SC5314 Erg6 assessed as fold increase in zymosterol content at 1 ug/ml incubated for 12 hrs by GC-MS analysis; details: dose 1.0 µg/ml
T1 sequence (whole entry): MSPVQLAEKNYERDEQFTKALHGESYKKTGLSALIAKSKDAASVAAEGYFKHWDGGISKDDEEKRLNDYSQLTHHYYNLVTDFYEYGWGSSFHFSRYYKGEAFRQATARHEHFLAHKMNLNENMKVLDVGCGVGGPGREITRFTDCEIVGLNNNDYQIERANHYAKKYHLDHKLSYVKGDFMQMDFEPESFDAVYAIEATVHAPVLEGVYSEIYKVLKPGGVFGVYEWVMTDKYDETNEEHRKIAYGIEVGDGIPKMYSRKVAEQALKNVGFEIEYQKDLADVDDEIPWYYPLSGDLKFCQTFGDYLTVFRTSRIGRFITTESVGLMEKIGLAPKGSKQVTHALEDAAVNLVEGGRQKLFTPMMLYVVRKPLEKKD

[6] = molecular target: T1, Sterol 24-C-methyltransferase (Candida albicans (strain SC5314 / ATCC MYA-2876) (Yeast)); test: Thermal stabilization of recombinant Candida albicans SC5314 Erg6 transfected in Escherichia coli BL21 (DE3) at 0.5 ug/ml incubated for 30 mins at 43 to 57 degreeC by Western blot analysis; details: dose 0.5 µg/ml
[7] = molecular target: T2, Sterol 24-C-methyltransferase (Candida albicans (strain SC5314 / ATCC MYA-2876) (Yeast), UniProt O74198); test: Inhibition of recombinant Candida albicans SC5314 Erg6 methyltransferase activity using zymosterol as substrate incubated for 15 mins followed by substrate addition by liquid scintillation counter analysis
T2 sequence (O74198 whole entry): T1 sequence (whole entry)

Candida albicans [8] = test: Downregulation of RAS1 gene level in Candida albicans SC5314 at 1 ug/ml incubated for 6 hrs by qPCR analysis; type: functional; details: dose 1.0 µg/ml
Candida albicans [9] = test: Upregulation of NRG1 expression in Candida albicans SC5314 at 1 ug/ml incubated for 6 hrs by qPCR analysis; type: functional; details: dose 1.0 µg/ml
Candida albicans [10] = test: Downregulation of ECE1 expression in Candida albicans SC5314 at 1 ug/ml incubated for 6 hrs by qPCR analysis; type: functional; details: dose 1.0 µg/ml
Candida albicans [11] = test: Downregulation of ALS3 expression in Candida albicans SC5314 at 1 ug/ml incubated for 6 hrs by qPCR analysis; type: functional; details: dose 1.0 µg/ml
Candida albicans [12] = test: Downregulation of HWP1 expression in Candida albicans SC5314 at 1 ug/ml incubated for 6 hrs by qPCR analysis; type: functional; details: dose 1.0 µg/ml
Candida parapsilosis = test: Antifungal activity against Candida parapsilosis CP1 assessed as inhibition of fungal growth incubated for 24 hrs by CLSI protocol based broth microdilution method; type: functional; details: Lodderomyces parapsilosis
Nakaseomyces glabratus [13] = test: Antifungal activity against Candida glabrata CG2 assessed as inhibition of fungal growth incubated for 24 hrs by CLSI protocol based broth microdilution method; type: functional
[Candida] auris = Antifungal activity against Candida auris CBS12774 assessed as effect on cell size at 1 ug/ml measured after 6 hrs by microscopy based analysis; type: functional, organism-based; details: Candidozyma auris, dose 1.0 µg/ml
Nakaseomyces glabratus [14] = test: Antifungal activity against Candida glabrata CG2 assessed as inhibition of hyphae formation at 1 ug/ml measured after 6 hrs by microscopy based analysis; type: functional, organism-based; details: dose 1.0 µg/ml
Nakaseomyces glabratus [15] = test: Antifungal activity against Candida glabrata CG2 assessed as effect on cell structure at 1 ug/ml measured after 6 hrs by microscopy based analysis; type: functional, organism-based; details: dose 1.0 µg/ml
Candida albicans [16] = test: Synergistic antifungal activity against Candida albicans SC5314 assessed as inhibition of fungal growth incubated for 24 hrs in presence of tridemorph by broth microdilution checkerboard assay; type: functional
Candida albicans [17] = test: Antifungal activity against Candida albicans SC5314 assessed as inhibition of hyphae growth measured after 30 passages; type: functional, organism-based
Candida albicans [18] = test: Synergistic antifungal activity against Candida albicans SC5314 assessed as fractional inhibitory concentration index incubated for 24 hrs in presence of terbinafine by broth microdilution checkerboard assay; type: functional
Candida albicans [19] = test: Fungistatic activity against Candida albicans SC5314 at 1 ug/ml incubated for 3 hrs in presence of tridemorph by SYTOX staining based analysis; type: functional, organism-based; details: dose 1.0 µg/ml
Candida albicans [20] = test: Antifungal activity against Candida albicans SC5314 infected in Balb/C mouse candidiasis model assessed as decrease in skin fungal burden by measuring fold change at 0.5% administered topically and measured after 72 hrs; type: functional
Candida albicans [21] = test: Antifungal activity against Candida albicans SC5314 infected in Balb/C mouse candidiasis model assessed as decrease in skin fungal burden by measuring fold change at 0.5 % administered topically and measured after 72 hrs in presence of terbinafine; type: functional
Candida albicans [22] = test: Antifungal activity against Candida albicans SC5314 infected in Balb/C mouse candidiasis model assessed as filamentation defect at 0.5 % administered topically and measured after 72 hrs by PAS staining based analysis; type: functional, organism-based
Candida albicans [23] = test: Antifungal activity against Candida albicans SC5314 infected in Balb/C mouse candidiasis model assessed as filamentation defect at 0.5 % administered topically and measured after 72 hrs in presence of tridemorph by PAS staining based analysis; type: functional, organism-based
Candida albicans [24] = test: Antifungal activity against Candida albicans SC5314 infected in Balb/C mouse candidiasis model assessed as appearance of inflammatory infiltrates at 0.5 % administered topically and measured after 72 hrs in presence of tridemorph by H and E staining based analysis; type: functional, organism-based
Candida albicans [25] = test: Antifungal activity against Candida albicans SC5314 assessed as inhibition of hyphae growth measured after 6 hrs cultured under RPMI1640 medium by microscopy based analysis; type: functional, organism-based; details: dose 0.25-1 µg/ml
Candida albicans [26] = test: Antifungal activity against Candida albicans SC5314 assessed as inhibition of hyphae growth measured after 6 hrs cultured under RPMI1640 medium/5% serum by microscopy based analysis; type: functional, organism-based; details: dose 0.25-1 µg/ml
Candida albicans [27] = test: Antifungal activity against Candida albicans SC5314 assessed as inhibition of hyphae growth measured after 5 days cultured under solid spider agar medium by microscopy based analysis; type: functional, organism-based; details: dose 0.25-1 µg/ml, time 5.0 day
Candida albicans [28] = test: Antifungal activity against Candida albicans SC5314 assessed as inhibition of hyphae growth measured after 5 days cultured under solid spider agar medium and 10mM GlcNAc by microscopy based analysis; type: functional, organism-based; details: dose 0.25-1 µg/ml, time 5.0 day
Candida albicans [29] = test: Antifungal activity against Candida albicans SC5314 assessed as inhibition of morphological transition at 0.5 ug/ml measured after 5 days cultured under YPD embedded agar medium by microscopy based analysis relative to control; type: functional; design: scale not given: the % may be the effect or the level left; details: dose 0.5 µg/ml; time 5 day
Candida albicans [30] = test: Antibiofilm activity against Candida albicans CA14-TDH3-GFP at 0.5 to 2 ug/ml incubated for 24 hrs by XTT reduction assay; type: functional, organism-based; details: dose 0.5-2 µg/ml

## Cc1c(-n2c(-c3ccc4ccccc4c3)cs/c2=N\c2ccccc2)c(=O)n(-c2ccccc2)n1C
Candida albicans [1]
  MIC80: > 128 µg/mL
Candida albicans [2]
  MIC50: > 128 µg/mL
[3]
  EC50 at 48 h: > 50 µg/mL
[4]
  hemolysis at 1 h: < 1%
[5]
  fold change (FC): 11
[6]
  Activity: Active
[7]
  IC50: 273 nM
Candida albicans [8]
  Activity: Active
Candida albicans [9]
  Activity: Active
Candida albicans [10]
  Activity: Active
Candida albicans [11]
  Activity: Active
Candida albicans [12]
  Activity: Active
Candida parapsilosis
  MIC: > 128 µg/mL
Nakaseomyces glabratus [13]
  MIC: > 128 µg/mL
[Candida] auris
  Activity: inactive
Nakaseomyces glabratus [14]
  Activity: Active
Nakaseomyces glabratus [15]
  Activity: inactive
Candida albicans [16]
  MIC80: 1 µg/mL
Candida albicans [17]
  Activity: Active
Candida albicans [18]
  fractional inhibitory concentration index (FICI): <0.1
Candida albicans [19]
  Activity: Active
Candida albicans [20]
  fold change (FC): 2.86
Candida albicans [21]
  fold change (FC): 59.11
Candida albicans [22]
  Activity: Active
Candida albicans [23]
  Activity: Active
Candida albicans [24]
  Activity: inactive
Candida albicans [25]
  Activity: Dose-Dependent Effect
Candida albicans [26]
  Activity: Dose-Dependent Effect
Candida albicans [27]
  Activity: Dose-Dependent Effect
Candida albicans [28]
  Activity: Dose-Dependent Effect
Candida albicans [29]
  Activity: 100%
Candida albicans [30]
  Activity: Active
